The results in this text go back to US11932606B2, “Anti-cancer/anti-fibrosis compounds” (THE REGENTS OF THE UNIVERSITY OF CALIFORNIA, priority 2017, dated 2024).

One data set concerns MOLM-14 xenograft. Kind of data set: MOLM-14 mouse xenograft model. It counts as in vivo. Particulars: 50 mg/kg orally b.i.d. As to the method: 40 athymic nude mice (Taconic Biosciences) were injected with 5×10^6 MOLM-14 cells in 50% matrigel s.c. in flank. Cell Injection Volume is 0.2 ml/mouse for MOLM-14. Age of mice at start date is 12-14 weeks. Perform a pair match when tumors grows after two weeks and begin treatment. Compound 29 was dissolved in saline and was given orally twice a day on a schedule of five days on/two days off for three weeks. Body weight and tumor size were measured every other day when mice being treated. After the last administration, mice were euthanized for tumor collection. […] In the MOLM-14 xenograft model, mice were treated with compound 29 at 50 mg/kg for 21 days (orally, b.i.d). The tumor volume from control and vehicle group was measured. […] Body weights of mice in both groups were measured and plotted.

A further data set has as its target HIPK2 (Homo sapiens (Human), UniProt Q9H2X6). Nature of the data set: HIPK2 enzymatic activity inhibition (Z'-LYTE). The data set is classed as biochemical. Particulars: read-out: HIPK2 IC50. As to the method:
HIPK2 Enzymatic Activity Inhibition: Determination of IC50 Values for Selected Compounds
The half maximal inhibitory concentration (IC50) with respect to HIPK2 inhibition was determined for the compounds of the invention by using Z′-LYTE™ from ThermoFisher Scientific's SelectScreen™ Biochemical Kinase Profiling Service (Waltham, MA). Compounds were screened in 1% DMSO (final) in the well. For 10 point titrations, 3-fold serial dilutions were conducted from the starting concentration. The 2×HIPK2/Ser/Thr 09 mixture was prepared in 50 mM HEPES pH 7.5, 0.01% BRIJ-35, 10 mM MgCl2, 1 mM EGTA.
100 nL of 100× test compound in 100% DMSO, 2.4 uL of kinase buffer (50 mM HEPES pH 7.5, 0.01% BRIJ-35, 10 mM MgCl2, 1 mM EGTA), 5 uL of 2×HIPK2/Ser/Thr 09 mixture, and 2.5 uL of 4×ATP solution were mixed and agitated for 30 seconds. Then the Kinase Reaction was incubated at room temperature for 60 minutes. […] After 30 second of plate shake, the reaction plate was incubated for another 60 min at room temperature. Then the plate was read on a fluorescence plate reader (CLARIOstar, BMG Labtech, Germany) as plate reader and data was analyzed using XLfit from IDBS.

In the next data set the test system is MV-4-11 xenograft. Kind of data set: MV-4-11 mouse xenograft model. It counts as in vivo. Particulars: 50 mg/kg orally b.i.d., 21 days. Here is the method: 40 CR female NCr nu/nu mice (Charles River Laboratories) were injected with 1×10^7 MV-4-11 cells in 50% matrigel s.c. in flank. Cell Injection Volume is 0.1 mL/mouse for MV-4-11 cells. Age of mice at start date is 8 to 12 weeks. Perform a pair match when tumors grow after two weeks and begin treatment. Compound 29 was given orally twice a day for 21 consecutive days. Body weight and tumor size were measured every three days. In the MV-4-11 xenograft model, mice were treated with compound 29 with 50 mg/kg for 21 days (orally, b.i.d). The tumor volume from control and vehicle group were measured, compared. […] Body weights of mice in both groups were measured and plotted.

For another data set, the system named is H2030-BRM3. Kind of data set: Cell viability assay (CellTiter-Glo, day 7). Particulars: 168 h; H2030-BRM3, day 7. It counts as cell-based. Here is the method:
(§1) CLL-119, Hela, HCT116, MCF7, Colo205, SW620, H2052, MSTO-211H, U-251, Colo 357, OE33, Huh-7, A549, BT474, A204 and H290 cells were acquired from UCSF Cell and Genome Engineering Core. A549-Brm3 and H2030-Brm3 were from UCSF thoracic oncology lab. All cells were plated (96-well) in triplicate at 500 cells per well for testing (n=3) with compound. Medium was changed once on day 3. On day 7, the CellTiter-Glo Luminescent Cell Viability Assay (Promega) was performed to measure the response. For cell viability assay, two independent experiments have been done.

The subject of the next data set is A204. Kind of data set: Cell viability assay (CellTiter-Glo, day 7). Particulars: Homo sapiens, 168 h; A204, day 7. The data set is classed as cell-based. Here is the method:
as §1

For a further data set, the system named is HCT116. Nature of the data set: Cell viability assay (CellTiter-Glo, day 7). The data set is classed as cell-based. Particulars: Homo sapiens, HCT-116, 168 h; HCT116, day 7. As to the method: as §1
The test system of the next data set is OE33. Nature of the data set: Cell viability assay (CellTiter-Glo, day 7). The data set is classed as cell-based. Particulars: Homo sapiens, 168 h; OE33, day 7. As to the method: as §1
In a further data set the test system is Colo357. Nature of the data set: Cell viability assay (CellTiter-Glo, day 7). It counts as cell-based. Particulars: Homo sapiens, 168 h; Colo357, day 7. As to the method:
as §1

The subject of another data set is SW620. Kind of data set: Cell viability assay (CellTiter-Glo, day 7). It counts as cell-based. Particulars: Homo sapiens, SW-620, 168 h; SW620, day 7. As to the method: as §1
A further data set deals with U-251. Nature of the data set: Cell viability assay (CellTiter-Glo, day 7). The data set is classed as cell-based. Particulars: Homo sapiens, 168 h; U-251, day 7. As to the method: as §1
A further data set has as its system BT474. Kind of data set: Cell viability assay (CellTiter-Glo, day 7). The data set is classed as cell-based. Particulars: Homo sapiens, BT-474, 168 h; BT474, day 7. Here is the method: as §1
The next data set relates to CLL-119. Kind of data set: Cell viability assay (CellTiter-Glo, day 7). It counts as cell-based. Particulars: 168 h; CLL-119, day 7. As to the method:
as §1

The subject of the next data set is Colo205. Kind of data set: Cell viability assay (CellTiter-Glo, day 7). Particulars: Homo sapiens, COLO 205, 168 h; Colo205, day 7. It counts as cell-based. Here is the method: as §1
The test system of a further data set is A549. Kind of data set: Cell viability assay (CellTiter-Glo, day 7). The data set is classed as cell-based. Particulars: Homo sapiens, 168 h; A549, day 7. Here is the method:
as §1

The next data set deals with H2052. Kind of data set: Cell viability assay (CellTiter-Glo, day 7). Particulars: Homo sapiens, NCI-H2052, 168 h; H2052, day 7. The data set is classed as cell-based. As to the method:
as §1

In another data set the test system is MCF7. Nature of the data set: Cell viability assay (CellTiter-Glo, day 7). The data set is classed as cell-based. Particulars: Homo sapiens, 168 h; MCF7, day 7. Here is the method:
as §1

Another data set concerns Hela. Nature of the data set: Cell viability assay (CellTiter-Glo, day 7). It counts as cell-based. Particulars: Homo sapiens, 168 h. Here is the method: as §1
In data set [1] the test system is colorectal cancer cell line SW620. Nature of the data set: Synergy experiment of Compound 29 and 2DG, cell viability. It counts as cell-based. Here is the method: SW620 cells were plated (96-well) in triplicate at 500 cells per well for testing (n=3) with 5 mM 2-DG and different concentrations of compound 29 (0-10 uM). Medium was changed once on day 3. On day 7, the CellTiter-Glo Luminescent Cell Viability Assay (Promega) was performed to measure the response. For cell viability assay, two independent experiments have been done.

pIC50: −log10 of the molar value.

Chain of HIPK2 (Q9H2X6 whole entry): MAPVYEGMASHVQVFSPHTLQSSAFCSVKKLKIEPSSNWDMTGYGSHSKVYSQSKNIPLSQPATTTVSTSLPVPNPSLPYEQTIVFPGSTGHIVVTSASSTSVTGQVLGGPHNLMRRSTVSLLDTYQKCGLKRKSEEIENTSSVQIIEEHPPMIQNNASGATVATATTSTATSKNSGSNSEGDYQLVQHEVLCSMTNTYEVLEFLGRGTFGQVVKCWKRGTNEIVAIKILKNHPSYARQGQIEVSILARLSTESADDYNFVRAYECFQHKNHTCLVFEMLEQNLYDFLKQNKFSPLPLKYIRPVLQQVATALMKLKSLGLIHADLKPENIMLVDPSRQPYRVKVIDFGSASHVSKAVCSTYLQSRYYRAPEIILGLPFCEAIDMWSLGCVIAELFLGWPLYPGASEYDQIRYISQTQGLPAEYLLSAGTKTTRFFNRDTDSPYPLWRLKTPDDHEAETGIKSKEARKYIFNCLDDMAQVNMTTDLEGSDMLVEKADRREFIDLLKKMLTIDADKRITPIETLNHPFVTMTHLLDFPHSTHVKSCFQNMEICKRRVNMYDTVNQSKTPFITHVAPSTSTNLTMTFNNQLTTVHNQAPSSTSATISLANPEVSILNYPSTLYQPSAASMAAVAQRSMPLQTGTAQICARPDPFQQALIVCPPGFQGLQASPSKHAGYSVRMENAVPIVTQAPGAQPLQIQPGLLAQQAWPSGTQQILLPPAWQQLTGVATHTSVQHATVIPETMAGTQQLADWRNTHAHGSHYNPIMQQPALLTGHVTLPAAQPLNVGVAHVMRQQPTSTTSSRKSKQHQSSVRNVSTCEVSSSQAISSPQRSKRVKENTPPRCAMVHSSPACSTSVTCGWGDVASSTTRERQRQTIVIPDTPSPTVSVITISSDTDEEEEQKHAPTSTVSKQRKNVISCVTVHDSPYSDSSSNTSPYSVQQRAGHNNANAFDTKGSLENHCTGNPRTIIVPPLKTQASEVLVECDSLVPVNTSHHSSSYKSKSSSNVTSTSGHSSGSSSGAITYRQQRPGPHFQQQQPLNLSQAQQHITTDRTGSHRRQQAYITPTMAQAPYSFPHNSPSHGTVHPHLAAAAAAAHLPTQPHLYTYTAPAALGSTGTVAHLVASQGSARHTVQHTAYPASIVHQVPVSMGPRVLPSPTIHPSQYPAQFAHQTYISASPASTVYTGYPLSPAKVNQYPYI

Regarding `Nc1nccc2c(Br)cc3cc(C(=O)[O-])ccc3c12.[Na+]` [Compound 29, Sodium 1-amino-5-bromobenzo[h]isoquinoline-8-carboxylate], the “Growth of tumors (tumor volume)” value with MOLM-14 xenograft (21 days) is on record as “greatly inhibited”. The molecule also displayed a weight loss with MOLM-14 xenograft (during treatment) of under 5%. Further, the pIC50 was over 6.52 on HIPK2; over 6.00 in the data set on H2030-BRM3; 5.00 to 6.00 with A204; 5.00 to 6.00 in the data set with HCT116; over 6.00 with OE33; 5.00 to 6.00 with Colo357. Further, the negative logarithm of the IC50 (pIC50) with SW620 is 5.00 to 6.00; in the data set on U-251, 5.00 to 6.00; in the data set with BT474, 5.00 to 6.00; in the data set with CLL-119 it was over 6.00; in the data set with Colo205 it was over 6.00; in the data set with A549, 5.00 to 6.00. Besides, the pIC50 is 5.00 to 6.00 in the data set with H2052; 5.00 to 6.00 with MCF7; 5.00 to 6.00 in the data set with Hela; 5.00 to 6.00 in data set [1] (Homo sapiens, SW-620, 168 h, SW620, without 2DG, day 7, read-out: Cell viability IC50 of Compound 29 alone). Further, the Body weight result with MV-4-11 xenograft is reported as “didn't suffer from weight loss”. Also, in the data set with MV-4-11 xenograft (last measurement point), the “Tumor volume vs control group” value is listed as “only about half the size of tumors from the control group”. Also, the “Synergy with 2DG in viability assay” value in data set [1] (SW620, 5 mM 2DG) is reported as “synergizes with 2DG”.
